# Assay results published in patent US9532970B2, “Compositions for anti-inflammatory, antioxidant effects and improved respiratory function by specific histone deacetylase inhibition” (priority 2014, dated 2017).
# Like-named read-outs stand apart in the source and are kept apart here.
# Tests used:
# Horse PBMC = settings: for Log2 Fold Change: LSF vs control
# HDAC-6 = biological target: T1, HDAC-6 (Homo sapiens, UniProt Q9UBN7)
# T1 sequence (Q9UBN7 1-1215): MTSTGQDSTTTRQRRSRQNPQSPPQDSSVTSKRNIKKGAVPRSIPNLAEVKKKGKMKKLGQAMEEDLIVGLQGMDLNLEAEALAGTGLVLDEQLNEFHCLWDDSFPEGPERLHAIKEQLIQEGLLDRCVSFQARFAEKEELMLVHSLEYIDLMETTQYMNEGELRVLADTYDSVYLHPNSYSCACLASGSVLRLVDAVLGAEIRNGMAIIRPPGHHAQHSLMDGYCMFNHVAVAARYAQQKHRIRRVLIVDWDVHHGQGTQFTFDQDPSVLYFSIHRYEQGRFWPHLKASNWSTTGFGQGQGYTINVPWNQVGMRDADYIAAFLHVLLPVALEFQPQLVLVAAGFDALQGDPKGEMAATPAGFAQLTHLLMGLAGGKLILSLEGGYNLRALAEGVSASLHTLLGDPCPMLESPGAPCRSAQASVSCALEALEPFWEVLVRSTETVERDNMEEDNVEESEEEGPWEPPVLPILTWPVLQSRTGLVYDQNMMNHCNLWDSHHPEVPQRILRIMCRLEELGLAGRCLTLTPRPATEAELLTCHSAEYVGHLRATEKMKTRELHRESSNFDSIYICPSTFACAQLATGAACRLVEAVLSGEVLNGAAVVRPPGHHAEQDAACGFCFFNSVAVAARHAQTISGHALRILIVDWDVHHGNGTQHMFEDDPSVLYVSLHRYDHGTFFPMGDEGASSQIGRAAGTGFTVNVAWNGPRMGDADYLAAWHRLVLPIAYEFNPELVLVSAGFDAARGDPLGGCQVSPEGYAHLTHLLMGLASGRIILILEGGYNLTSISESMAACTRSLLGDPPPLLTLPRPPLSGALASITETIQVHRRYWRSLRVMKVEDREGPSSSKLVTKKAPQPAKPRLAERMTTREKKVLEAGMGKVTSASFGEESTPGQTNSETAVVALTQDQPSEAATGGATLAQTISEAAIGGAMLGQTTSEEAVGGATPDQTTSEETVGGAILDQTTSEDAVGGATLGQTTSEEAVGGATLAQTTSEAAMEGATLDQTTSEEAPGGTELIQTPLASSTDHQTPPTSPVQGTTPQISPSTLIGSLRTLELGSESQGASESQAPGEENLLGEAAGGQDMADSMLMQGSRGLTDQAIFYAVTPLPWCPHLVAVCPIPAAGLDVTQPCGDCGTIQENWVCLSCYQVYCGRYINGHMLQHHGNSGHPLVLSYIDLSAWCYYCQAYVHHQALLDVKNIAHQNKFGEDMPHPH
# [1] = test system: ovalbumin (OVA)-induced AAD
# [2] = three control vs three LSF treated samples
# [3] = 5 mg/kg intraperitoneally following each OVA nebulization, compared to ovalbumin-sensitized mice
smiles,measurement,setting,value
"C[S@@+]([O-])CCCCN=C=S [LSF, (R)-1-Isothiocyanato-4-(methylsulfinyl)butane]",Log2 Fold Change,Horse PBMC; gene ABCA1,−4.37
same,Log2 Fold Change,Horse PBMC; gene APOBEC3Z1B,−3.67
same,Log2 Fold Change,Horse PBMC; gene ASPH,1.93
same,Log2 Fold Change,Horse PBMC; gene C2,−2.13
same,Log2 Fold Change,Horse PBMC; gene CD180,−2.97
same,Log2 Fold Change,Horse PBMC; gene CMKLR1,−3.79
same,Log2 Fold Change,Horse PBMC; gene CSF3R,−3.76
same,Log2 Fold Change,Horse PBMC; gene CXCL9,−2.55
same,Log2 Fold Change,Horse PBMC; gene CYP1B1,−3.83
same,Log2 Fold Change,Horse PBMC; gene DENND2A,3.67
same,Log2 Fold Change,Horse PBMC; gene FRMPD4,−3.80
same,Log2 Fold Change,Horse PBMC; gene FTL,1.51
same,Log2 Fold Change,Horse PBMC; gene GSAP,2.00
same,Log2 Fold Change,Horse PBMC; gene IL8,3.54
same,Log2 Fold Change,Horse PBMC; gene KCNJ2,2.06
same,Log2 Fold Change,Horse PBMC; gene MAFB,−2.66
same,Log2 Fold Change,Horse PBMC; gene ME1,1.47
same,Log2 Fold Change,Horse PBMC; gene MN-SOD,1.93
same,Log2 Fold Change,Horse PBMC; gene NR1H3,−2.56
same,Log2 Fold Change,Horse PBMC; gene OSGIN2,1.88
same,Log2 Fold Change,Horse PBMC; gene PLEKHA4,−3.60
same,Log2 Fold Change,Horse PBMC; gene PTPN12,1.43
same,Log2 Fold Change,Horse PBMC; gene RIPK2,2.01
same,Log2 Fold Change,Horse PBMC; gene RNASE6,−2.45
same,Log2 Fold Change,Horse PBMC; gene SERPINB2,−4.65
same,Log2 Fold Change,Horse PBMC; gene SLAMF8,−2.75
same,Log2 Fold Change,Horse PBMC; gene SLC7A8,−3.35
same,Log2 Fold Change,Horse PBMC; gene SLC7A11,2.34
same,Log2 Fold Change,Horse PBMC; gene SLC37A2,−2.72
same,Log2 Fold Change,Horse PBMC; gene SORCS1,−2.71
same,Log2 Fold Change,Horse PBMC; gene STAC2,3.38
same,Log2 Fold Change,Horse PBMC; gene STXBP5,1.57
same,Log2 Fold Change,Horse PBMC; gene TGM2,−3.99
same,Log2 Fold Change,Horse PBMC; gene TNFSF15,2.40
same,Log2 Fold Change,Horse PBMC; gene TNS3,−3.09
same,Log2 Fold Change,Horse PBMC; gene TUBA4A,1.30
same,Log2 Fold Change,Horse PBMC; gene TXN,1.87
same,Log2 Fold Change,Horse PBMC; gene TXNRD1,2.13
same,Log2 Fold Change,Horse PBMC; gene WDR59,2.19
same,Log2 Fold Change,Horse PBMC; gene ZFAND2A,2.22
same,differentially expressed genes (number),Horse PBMC; [2],5951
same,down-regulated genes (number),Horse PBMC; [2],3012
same,up-regulated genes (number),Horse PBMC; [2],2939
same,HILLSLOPE,HDAC-6; HDAC-6,−0.88
same,binding to HDAC 6 (in words),HDAC-6; more subtle than Trichostatin A,specific binding
same,airway wall thickness,[1]; [3],reductions
same,goblet cell hyperplasia,[1]; [3],reductions
same,inflammation,[1]; [3],reductions
same,Annexin V staining (apoptosis) in lung tissue,"[1]; OVA-LSF 5 mg/kg, strong staining in OVA-VEH",Weak
